Results published in US11433136B2, “Polyacetal polymers, conjugates, particles and uses thereof” (THE GENERAL HOSPITAL CORPORATION, priority 2015, dated 2022).

Test system: orthotopic AK4.4 pancreatic tumors
Experiment: Orthotopic AK4.4 pancreatic tumor study in lean and obese mice
Type: in vivo, mouse
Conditions: for gene and protein expression of activated PSC marker αSMA in tumors: losartan 90 mg/Kg i.p. every day
Description: Wild-type (WT) C57BL/6 and FVB male mice were originally obtained from Jackson Laboratory (The Jackson Laboratory, Bar Harbor, Me.) and bred and maintained in our defined-flora colony. KPC (Ptf1-Cre/LSL-KRAS^G12D/p53-R172H) and iKRAS (p48-Cre;R26-rtTa-IRES-EGFP;TetO-Kras^G12D mice) mice were obtained. To generate an obese model, mice (6-week old) were given either 10% or a 60% fat diet (D12450J and D12492, Research Diets, New Brunswick, N.J.) for 10 weeks (or until tumor collection in spontaneous models), as previously described (Surwit, R. S., et al. Metabolism: clinical and experimental 44, 645-651 (1995)). For implanted tumor experiments, AK4.4 cells (KrasG12D and p53 ? /) were isolated from mice generating spontaneous pancreatic tumors (Ptf1-Cre/LSL-Kras^G12D/p53Lox/ ? ) (Bardeesy, N., et al. Proc Natl Acad Sci USA 103, 5947-5952 (2006)). Orthotopic pancreatic tumors were generated by implanting a small piece (1 mm^3) of viable tumor tissue (from a source tumor in a separate animal) into the pancreas of a 6-8 week-old male lean or obese FVB (AK4.4 model) or C57BL/6 (PAN02 model) mouse. PAN02 tumor chunks and AK4.4 cells were authenticated by IDEXX laboratories. (PAN02: IDEXX RADIL Case #22366-2013. AK4.4: IDEXX RADIL Case #27818-2014). For AT1- and AT2-knockout studies, tumors were implanted into the pancreas of a 6-8-week-old male lean or obese C57BL/6, agtr1a−/− or agtr2−/− mice. With exception of PAN02, these orthotopically grown pancreatic cancers are characterized by a dense collagenous stroma, a hallmark of pancreatic cancer desmoplasia (Diop-Frimpong, B., et al. Proc Natl Acad Sci USA 108, 2909-2914 (2011)).
For all experiments unless specified below, mice bearing orthotopic PAN02 or AK4.4 pancreatic tumors were randomized into treatment groups (or no treatment) and tumors were collected at day 21 after implantation. For tumor growth study with chemotherapy, mice were divided into treatment groups 7 days after implantation, and treated with either 5-FU (30 mg/Kg i.v. every 4 days) or an equal volume of saline by intravenous injection on days 7, 11 and 15 after implantation, with tumors collected at day 19. For tumor growth study with losartan, mice were treated with losartan (90 mg/Kg i.p. every day) or an equal volume of PBS intraperitoneally starting on day 5 after implantation and for the duration of the study. In the combined experiment of losartan and 5-FU, the same protocol was used for each drug as described above. TAN depletion by a Ly6G specific inhibitor (BioExcell, 4 mg/Kg i.p. every 2 days) was administered to PAN02 bearing animals starting at day 1 or day 7, and to AK4.4 bearing animals at day 7. IL-1β inhibition (MM425B, Endogen/Pierce Biotechnology, 2 mg/Kg i.p. every 2 days) was administered to PAN02 bearing animals starting at day 7. At the completion of the study, adipose tissue and tumor samples were collected, weighed, and processed for further analysis. When spontaneous models were used, tumors were collected when palpable.
To assess obesity-induced ECM remodeling and fibrosis fibrillar collagen accumulation was quantified using second harmonic generation imaging, and collagen-I content, hyaluronan, MMPs levels and fibrosis related signaling pathways (e.g. AT-I, CTGF, TSP 1, TGFβ1, and P38/ERK signaling) were measured by rtPCR array, immunohistochemistry and immunoblotting. The topographical distribution and density of cancer-associated fibroblasts (CAFs) in tumor sections was detected by staining for αSMA activated fibroblast marker. Vessel morphology and perfusion was assessed using standard histological analyses.
Tumor-bearing mice were perfused through intracardiac injection of PBS and sacrificed. Pancreatic tumor tissues were harvested, minced, and digested at 37° C. for 1 h with DMEM containing collagenase type 1A (1.5 mg/mL), hyaluronidase (1.5 mg/mL), and DNase (2 mg/mL). The digestion mixtures were filtered through 70-μm cell strainers. […]

CCCCc1nc(Cl)c(CO)n1Cc1ccc(-c2ccccc2-c2nn[nH]n2)cc1 [losartan]
gene and protein expression of activated PSC marker αSMA in tumors (lean mice): only mildly | tumor weight, losartan monotherapy (obese mice): reduced tumor weight | gene and protein expression of activated PSC marker αSMA in tumors (obese mice): reduce | obesity-induced abnormal expression of desmoplasia-related markers and AT1 downstream signaling (obese mice, effects only modest in lean animals): normalized | response to chemotherapy with AT1 blockade (obese mice, somewhat effective in the lean setting, losartan plus 5-FU): improved therapeutic response in tumors to a greater extent | gene and protein expression of collagen-I and fibrillar collagen in tumors (obese, but not lean mice, losartan): decrease

O=c1[nH]cc(F)c(=O)[nH]1 [Example 5-FU, 5-fluorouracil]
reduction in tumor weight as compared to untreated controls (lean mice, 3 doses of 5-FU 30 mg/kg BW q4d): 50% | effect on tumor weight (obese mice, 3 doses of 5-FU 30 mg/kg BW q4d): did not significantly reduce tumor weight
